Test results published in patent publication US20220073942A1, “Cells with reduced inhibitor production and methods of use thereof” (PFIZER INC., priority 2018, published 2022).
Where two headings read alike, the source gives them in different places.

Tests used:
[1] = test system: CHO cells (cell line A); details: fresh Medium A supplemented with formate at 0, 2, 4 and 6 mM, growth monitored for 5 or 6 days, FIG. 3B
Procedure: CHO cells (cell line A or cell line B) producing a recombinant antibody were inoculated at low cell densities (0.1 E6 cells/mL) in various conditions in triplicates in 6-well plate cultures. The working volume for each well on day 0 was 4 mL. Cell line A was inoculated either in fresh Medium A or fresh Medium A supplemented with formate at various concentrations. Cell line B was inoculated either in fresh Medium A or fresh Medium A supplemented with glycerol at various concentrations. The concentrations tested for formate were [0, 2, 4 and 6 mM] and for glycerol were [0, 2 and 4 mM]. The 6-well plates were incubated on a shaking platform in 36.5C and 5% carbon dioxide. Cell growth in all the conditions was monitored for 5 or 6 days.

[2] = test system: CHO cells (cell line B); assay: Effect of glycerol on growth (viable cell density) of CHO cells in 6-well plate culture; format: cell-based, Chinese hamster; details: fresh Medium A supplemented with glycerol at 0, 2 and 4 mM, growth monitored for 5 or 6 days, FIG. 3A

Structure (SMILES)	concentration at which cell growth was suppressed [1]	concentration at which cell growth was suppressed ([1]; listed as Formate) [mM]	concentration at which cell growth was suppressed [2]	concentration at which cell growth was suppressed ([2]; listed as Glycerol) [mM]
O=CO [formate]	higher than 2 mM	≥ 2	–	–
OCC(O)CO [glycerol]	–	–	higher than 2 mM	≥ 2
